Experimental data: paper PMC9318133 (International Journal of Molecular Sciences, 2022)
Like-named read-outs stand apart in the source and are kept apart here.

Assays:
[1] = system: CD-1 mice; parameters: method as in PMID 25769232, PMID 25987201; settings: ED50 + SEM, data elaborated from ref [33],[34]; cited from earlier work
[2] = system: CD-1 mice; parameters: method as in PMID 25769232, PMID 25987201; settings: ED50 + SEM, data elaborated from ref [33],[34]; cited from earlier work; remark: listed apart in the source
[3] = system: CD-1 mice; parameters: method as in PMID 25769232, PMID 25987201; settings: ED50 + SEM, data elaborated from ref [33],[34]; cited from earlier work; remark: listed apart in the source
[4] = system: CD-1 mice; parameters: method as in PMID 25769232, PMID 25987201; settings: ED50 + SEM, data elaborated from ref [33],[34]; cited from earlier work; remark: listed apart in the source
[5] = biological target: T1, mouse CB2 receptors (Mus musculus, UniProt P47936); parameters: method as in PMID 27527584, PMID 25769232; settings: read-out: Mouse Spleen Membranes CB2 Ki; [3H]-CP-55,940 competition binding; mean ± SEM; data elaborated from ref [15],[33]; cited from earlier work
T1 construct: membranes from the mouse brain and spleen were used, respectively; from tissue; host or cells: mouse spleen membranes, CD-1 mice

[6] = biological target: T2, human CB2 receptors (Homo sapiens, UniProt P34972); parameters: method as in PMID 27527584, PMID 25769232; settings: read-out: hCB2 CHO Cells IC50; cyclic AMP experiments; mean ± SEM; data elaborated from ref [15],[33]; cited from earlier work
T2 construct: host or cells: CHO cells

[7] = biological target: T3, human CB1 receptors (Homo sapiens, UniProt P21554); parameters: method as in PMID 27527584, PMID 25769232; settings: read-out: hCB1 CHO Cells IC50; cyclic AMP experiments; mean ± SEM; data elaborated from ref [15],[33]; cited from earlier work
T3 construct: host or cells: CHO cells

[8] = system: CD-1 mice; test: Core (rectal) temperature evaluation; type: in vivo, mouse
[9] = biological target: T2, human CB2 receptors; test: [3H]-CP-55,940 competition binding, CHO cell membranes transfected with human CB2 receptors
Method: To obtain membranes, cells were washed with phosphate-buffered saline (PBS) and scraped off with ice-cold hypotonic buffer (5 mM Tris HCl, 2 mM EDTA, pH 7.4). The cell suspension was homogenized with a Polytron and then centrifuged for 30 min at 40,000× g. The membrane pellet was suspended in 50 mM Tris HCl buffer (pH 7.4) containing 2.5 mM ethylenediaminetetraacetic acid (EDTA), 5 mM MgCl2, and 0.5 mg/mL bovine serum albumin (BSA) for CB1 receptors or in 50 mM Tris HCl (pH 7.4), 1 mM EDTA, 5 mM MgCl2, and 0.5% BSA for CB2 receptors.
For human cannabinoid receptors, membranes obtained from CHO cells transfected with human CB1 or CB2 receptors (2 µg protein/100 µL) were used. […] Bound and free radioactivity were separated by filtering the assay mixture through Whatman GF/C glass fiber filters using a Brandel cell harvester (Brandel Instruments, Unterföhring, Germany).
The protein concentration was determined according to a Bio-Rad method with bovine serum albumin as a reference standard. Inhibitory binding constants, Ki, were calculated from the IC50 values according to the Cheng and Prusoff equation:Ki = IC50/(1 + [C*]/KD*) where [C*] is the concentration of the radioligand and KD* its dissociation constant. Functional experiments were analyzed by non-linear regression analysis using the equation for a sigmoid concentration–response curve (GraphPad Prism, San Diego, CA, USA). […]

[10] = system: CD-1 mice; test: Drag test (number of steps); type: in vivo, mouse
[11] = system: CD-1 mice; test: Breath rate evaluation; type: in vivo, mouse
[12] = biological target: T3, human CB1 receptors; test: Cyclic AMP assay (forskolin-stimulated) in CHO cells transfected with human CB1 receptors; type: cell-based
Method: Chinese hamster ovarian (CHO) cells transfected with human CB1 or CB2 receptors (Perkin Elmer Life and Analytical Sciences, Melville, NY, USA) were grown adherently and maintained in Ham’s F12 containing 10% fetal bovine serum, penicillin (100 U/mL), streptomycin (100 µg/mL), and Geneticin (G418, 0.4 mg/mL) at 37 °C in 5% CO2/95% air. To obtain membranes, cells were washed with phosphate-buffered saline (PBS) and scraped off with ice-cold hypotonic buffer (5 mM Tris HCl, 2 mM EDTA, pH 7.4). The cell suspension was homogenized with a Polytron and then centrifuged for 30 min at 40,000× g. […]
The protein concentration was determined according to a Bio-Rad method with bovine serum albumin as a reference standard. Inhibitory binding constants, Ki, were calculated from the IC50 values according to the Cheng and Prusoff equation:Ki = IC50/(1 + [C*]/KD*) where [C*] is the concentration of the radioligand and KD* its dissociation constant. Functional experiments were analyzed by non-linear regression analysis using the equation for a sigmoid concentration–response curve (GraphPad Prism, San Diego, CA, USA). All the data are expressed as the mean ± SEM of three independent experiments.

[13] = system: CD-1 mice; test: Visual object response test; type: in vivo, mouse
[14] = biological target: T2, human CB2 receptors; test: Cyclic AMP assay (forskolin-stimulated) in CHO cells transfected with human CB2 receptors; type: cell-based
Method: CHO cells transfected with human CB1 or CB2 receptors were washed with PBS, detached with trypsin, and centrifuged for 10 min at 200× g.

[15] = 0.01–30 mg/kg i.p., monitored over 5 h
[16] = Mus musculus, ip, mice, ED50 + SEM

T2 sequence (P34972 whole entry): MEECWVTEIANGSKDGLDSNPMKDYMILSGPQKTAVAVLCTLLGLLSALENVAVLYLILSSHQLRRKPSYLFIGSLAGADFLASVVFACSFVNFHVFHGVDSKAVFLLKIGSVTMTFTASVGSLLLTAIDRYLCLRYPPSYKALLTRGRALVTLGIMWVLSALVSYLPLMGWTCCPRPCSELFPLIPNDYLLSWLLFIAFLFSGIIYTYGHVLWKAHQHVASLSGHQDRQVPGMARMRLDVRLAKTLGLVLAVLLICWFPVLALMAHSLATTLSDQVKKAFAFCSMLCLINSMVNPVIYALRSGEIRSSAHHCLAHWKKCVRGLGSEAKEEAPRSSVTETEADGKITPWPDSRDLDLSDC
T3 sequence (P21554 whole entry): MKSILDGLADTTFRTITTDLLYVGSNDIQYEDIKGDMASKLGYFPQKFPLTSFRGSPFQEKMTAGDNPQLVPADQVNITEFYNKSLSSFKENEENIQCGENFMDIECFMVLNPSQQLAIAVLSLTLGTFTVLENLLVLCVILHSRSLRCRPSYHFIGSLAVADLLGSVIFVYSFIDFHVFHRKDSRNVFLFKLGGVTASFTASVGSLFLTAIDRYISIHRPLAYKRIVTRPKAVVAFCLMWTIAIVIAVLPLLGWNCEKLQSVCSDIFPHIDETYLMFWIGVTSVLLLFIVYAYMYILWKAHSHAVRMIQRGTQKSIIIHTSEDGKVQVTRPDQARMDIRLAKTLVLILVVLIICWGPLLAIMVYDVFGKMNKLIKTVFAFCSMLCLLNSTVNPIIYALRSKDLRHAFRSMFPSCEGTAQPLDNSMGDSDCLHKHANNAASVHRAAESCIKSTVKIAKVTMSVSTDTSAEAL
T1 sequence (P47936 whole entry): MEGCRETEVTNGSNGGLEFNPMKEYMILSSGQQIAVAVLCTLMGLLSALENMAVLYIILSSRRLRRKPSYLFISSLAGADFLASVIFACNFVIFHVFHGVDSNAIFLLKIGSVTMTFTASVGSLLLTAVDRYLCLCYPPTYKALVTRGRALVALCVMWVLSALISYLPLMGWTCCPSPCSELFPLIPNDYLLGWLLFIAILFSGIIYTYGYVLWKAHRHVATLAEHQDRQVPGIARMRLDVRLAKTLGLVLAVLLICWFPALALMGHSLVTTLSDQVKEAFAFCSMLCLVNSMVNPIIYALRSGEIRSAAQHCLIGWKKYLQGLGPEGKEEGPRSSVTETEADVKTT

Row | Compound | ED50 Visual Placing [1] [mg/kg] | ED50 Core Temperature [2] [mg/kg] | ED50 Startle Reflex [3] [mg/kg] | ED50 Visual Object [4] [mg/kg] | Ki [5] [µM] | IC50 [6] [µM] | IC50 [7] [µM] | effect on core temperature [8, 15] | ED50 [8, 16] [mg/kg] | Ki [9] [µM] | effect on motor activity in the drag test at low dose ([10]; 0.1 mg/kg i.p., lasted up to 280 min) | effect on motor activity in the drag test at higher doses ([10]; 6–30 mg/kg i.p.) | ED50 ([10]; Mus musculus, ip, mice, ED50 + SEM, calculated on inhibitory effect of the highest doses) [mg/kg] | effect on breath rate [11, 15] | ED50 [11, 16] [mg/kg] | dose at which inhibitory effect on breath rate was significant ([11]; i.p., after 120 min, persisted up to 5 h) [mg/kg] | IC50 [12] [µM] | effect on visual object response [13, 15] | ED50 ([13]; Mus musculus, ip, mice, ED50 + SEM, non-linear regression) [mg/kg] | IC50 [14] [µM]
1 | CCCCCn1cc(C(=O)c2cccc3ccccc23)c2ccccc21 [JWH-018, 1-naphthalenyl(1-pentyl-1H-indol-3-yl)-methanone] | 0.7 ± 0.06 | 1.7 ± 0.04 | 0.53 ± 0.05 | 0.32 ± 0.06 | 0.00713 ± 0.00053 | 0.0116 ± 0.00097 | 0.0137 ± 0.00104 |  |  |  |  |  |  |  |  |  |  |  |  | 
2 | CCCCCn1cc(Cc2cccc3ccccc23)c2ccccc21 [JWH-175, 3-(1-naphthalenylmethyl)-1-pentyl-1H-indole] |  |  |  |  |  |  |  | reduced | 5.6 ± 0.04 | 0.363 ± 0.031 | facilitated | inhibited | 10.9 ± 0.12 | dose-dependently reduced the breath rate | 1.7 ± 0.15 | 0.1 | 0.072 ± 0.005 | dose-dependently reduced the visual object response | 9.6 ± 0.02 | 0.864 ± 0.061
